Assay results: US20220409602A1, “DOPAMINE D3 RECEPTOR LIGANDS FOR TREATMENT OF DYSKINESIA” (TEXAS BIOMEDICAL RESEARCH INSTITUTE, priority 2021, published 2022)
“Also recorded” adds a separate entry of the source.

Assays:
Assay type in all cases: in vivo, marmoset
[1] = system: Parkinsonian marmosets; experiment: Parkinson's Disease Rating Scale (PDRS) in dyskinetic Parkinsonian marmosets
Method: (§1) All the animals (n=3) have been previously treated with MPTP as described in detail. Briefly, MPTP (Sigma Aldrich) (dissolved in physiological saline) at a concentration of 2 mg/ml was subcutaneously injected (2 mg/kg B.wt) for 5 consecutive days. After a wash out period of 72 hours from last MPTP injection, the marmosets were returned to their home cages and monitored twice daily for rest of the study period.
(§2) For induction of dyskinesias, Levodopa (Sigma Aldrich) and carbidopa (Sigma Aldrich) at 1:1 were administered orally once daily for 5 days of a week. The drugs were mixed in either Ensure® pudding, cottage cheese, or marshmallows. […] Once the animals were acclimated to the drugs, the dose was increased to 20 mg/kg B.wt and continued for next 6 weeks.
The severity of symptoms in the marmosets was categorized using a validated Parkinsonian rating scale for NHP. The PDRS correlates highly with striatal dopamine concentrations detected by postmortem immunohistopathology and it is modeled on the Unified Parkinson's Disease Rating Scale (UPDRS) and the Hoehn & Yahr scale used clinically to categorize PD patients. The PDRS was performed in daylight by video recording animals for 30 minutes. The evaluation was carried out biweekly before and after MPTP injections. The videos were scored by a blinded operator using PDRS, with a maximal disability score of 57 in the following manner: 0=normal, 1=mild, 2=moderate, 3=severe; rest tremor, action tremor, tremor of the head, tremor right arm, tremor left arm, freezing, locomotion, fine motor skills right hand, fine motor skills left hand, bradykinesia right arm, bradykinesia left arm, posture, hypokinesia, balance, posture, startle response, gross motor skills right hand and gross motor skills left hand, apathy (defined as a state of indifference), vocalization, drooling or frothing, tongue/face/lips. Independently of the PDRS, rigidity was assessed by evaluating the resistance to passive joint movements and the range of motion during reaching for food. […]

[2] = system: Parkinsonian marmosets; experiment: motor activity recorded by actiwatch-mini during levodopa-induced dyskinesia; conditions: for motor activity / hyperactivity during peak-dose dyskinesia (actiwatch-mini): test drug 10 mg/kg with levodopa 20 mg/kg
Method: as §2
(§3) The diurnal and nocturnal behavior of the marmosets was monitored using the actiwatch mini (Camntech, UK) as previously described. The device is an accelerometer that measures the intensity of the test subject's omnidirectional movements in units or counts that are directly proportional to the animal's activity. The device (2 cm in diameter) was placed on a collar around the neck of the marmoset. The animals were acclimatized to the collar in short sessions of 15 min followed by gradual increments of 30 min, 1 hr, 3 hrs, 6 hrs and 12 hrs. Once acclimatized, the actiwatch mini was attached to the collar and the activity-rest data was recorded for a period of 24 hours on 3 separate days of each treatment. The actiwatches were placed on animals at 8:30 AM and the devices were preset to start recording activity data from 9:00 AM. At 11:30 AM either the vehicle or the drugs were orally administered to the animals. The following day, the actiwatch was removed after 9:00 AM and the data was transferred to a computer through an actiwatch reader using the actiwatch activity and sleep analysis-7 software (Camntech, UK). For sleep analysis, the period of sustained quiescence (marmosets sleep cycle) starting at 7:00 PM in the evening to early morning 6:30 AM (approximately 11½ hrs) was analyzed using the sleep analysis-7 software to quantify the sleep quality and wakeful periods. The duration of sleep time was corrected for individual variations in the animal's behavior to fall asleep at different time of the evening, thereby keeping the period of sleep time analyzed same for all the animals. The analyzed data was then exported to Excel® and plotted using the Graph pad prism statistical software. To determine the change in activity after the administration of drugs, actiwatch data in 10-minute bins were exported using the actiwatch activity and sleep analysis-7 software and plotted in Graph Pad Prism.

[3] = system: Parkinsonian marmosets with levodopa-induced dyskinesia; experiment: levodopa-induced dyskinesia in MPTP Parkinsonian marmosets, dyskinesia rating scale; conditions: for expression of levodopa-induced dyskinesia: oral, with levodopa 20 mg/kg, test drug 10 mg/kg where stated
Method: as §1, with “Briefly,” for “All the animals (n=3) have been previously treated with MPTP as described in detail. Briefly,”
as §2
The severity of dyskinesia in the marmosets was categorized using a validated dyskinesia rating scale for NHPs. Dyskinesia was analyzed from 5-minute videos of the monkeys recorded at every 30 minutes on Tuesday, Wednesday and Thursday of each week. The videos were recorded between 9:30 AM-4:30 PM. Each day the vehicle or drugs were administered at 11:30 AM. The severity of dyskinesias was scored for different segments of the animal's body on a scale from 0 to 3, with 0=absent, 1=mild, 2=moderate, 3=severe. The body segments scored were: 1. Right upper limb dyskinesias (0-3); 2. Left upper limb dyskinesias (0-3); 3. Right lower limb dyskinesias (0-3); 4. left lower limb dyskinesias (0-3); 5. Trunk dyskinesias (0-3); 6, Head/facial dyskinesias (0-3). The severity of the rating was based on the frequency and amplitude of the abnormal movements. The total score is deducted from the six sub-scores to yield a dyskinesia score of 0 to 3: with 0=absent, 1=mild, manifesting by transient abnormal involuntary movements with choreic form, flicking of arms and limbs, increased running and hopping in the cages. […] 3=severe, characterized by a sustained dyskinesia manifesting with chorea and athetosis with sinuous writhing movements of the limbs, and dystonia with sustained extension of hind limbs and knees. The animals are unable to reach and grasp for treats (Video 1).

[4] = system: Parkinsonian marmosets; experiment: PD-like symptoms and object retrieval task with barrier detour; conditions: compared to control or SWR-3-73
Method: The PD-like symptoms evaluated included tremors, bradykinesia, and posture and general activity measured by an accelerometer device, the Actiwatch mini. In addition, motor and cognitive functions were measured using the object retrieval task with barrier detour.
The object retrieval task with a barrier detour is a reward based behavioral testing system that was previously described to evaluate motor and cognitive functions of NHP. Briefly, the task requires the test subject to retrieve a reward (marshmallow) fastened to a tray from the open side (bypassing the barrier) of a transparent box. […] All parameters measured were previously described in detail. […] The entire process was recorded using a video camera and the recordings were then analyzed and scored by a blinded experimenter. During each trial, the following responses were scored (1) ability of the animal to reach the front, left, or right side of the box, scored under the term “reach act”; (2) hand of choice for the reach, either left or right, scored under the term “hand used”; (3) the outcome of the reach, either success or failure, scored under result section.
Using the above parameters, additional variables were analyzed: 1) Motor problem: Reaching into the open side of the box but without retrieving the reward. […]

[5] = system: Parkinsonian marmosets; experiment: nocturnal activity and sleep analysis by actiwatch-mini; conditions: with levodopa 20 mg/kg
Method: as §2, §3

[6] = levodopa 20 mg/kg acute challenge
[7] = first week of high dose levodopa/carbidopa 20 mg/kg
[8] = levodopa 20 mg/kg combined with vehicle
[9] = PD13R 0.1 to 10 mg/kg, SWR-3-73 and amantadine 10 mg/kg

## N[C@@H](Cc1ccc(O)c(O)c1)C(=O)O [levodopa, L-3,4-dihydroxy-phenylalanine]
[1]; high doses of levodopa
  Parkinsonian symptoms (PDRS): worsened the Parkinsonian symptoms
[1]; physiological doses of levodopa
  PDRS: improved the PDRS
[2]; [6]
  time to cross the dyskinesia threshold after injection (motor activity): ≤ 30 min
  time to return to the ON-period without dyskinesia: approximately 145 minutes
[3]; 6th week of high dose levodopa 20 mg/kg
  duration of dyskinesia after dosing: up to 4 hours
[3]; [7]
  duration of abnormal involuntary movements: up to 180 minutes
  time after dosing at which abnormal involuntary movements became visible: approximately 30 minutes
[3]; [8]
  duration of the peak-dose period of dyskinesias: 2 h
  time to reach the peak-dose period of dyskinesias after dosing: 30 min
[3]; levodopa 20 mg/kg combined with vehicle, scale 0 to 3
  highest dyskinesia disability score: 3

## N#Cc1cccc(N2CCN(CCCCNC(=O)c3ccc(-c4ccsc4)cc3)CC2)c1 [PD13R]
[4]
  PD-like symptoms and movement coordination: clear improvement in all PD-like symptoms and movement coordination
[1]; PD13R 10 mg/kg with levodopa in dyskinetic marmosets
  Parkinson's Disease Rating Scale (PDRS): significantly improved the PDRS
[2]; PD13R 0.1 to 10 mg/kg with levodopa 20 mg/kg
  hyperactivity during the peak-dose period (actograms): dose-dependent and significant reduction in the hyperactivity
[2]
  motor activity / hyperactivity during peak-dose dyskinesia (actiwatch-mini): motor activity remained within the therapeutic ON-period zone without dyskinesia; also recorded: maintained the motor activity within the ON-period without dyskinesia; also recorded: kept the motor activity within the ON-period; also recorded: inhibited the increased hyperactivity
[3]; 10 mg/kg with levodopa 20 mg/kg
  reduction of the expression of dyskinesia in the peak-dose period: approximately 85%
[3]; PD13R 0.1 mg/kg with levodopa 20 mg/kg
  anti-dyskinetic effects: no anti-dyskinetic effects were observed
[3]; PD13R 5 mg/kg with levodopa 20 mg/kg
  time to reach peak-dose dyskinesia: 1 h
[3]; dose range with levodopa 20 mg/kg
  dose with optimal anti-dyskinetic outcome: 10 mg/kg
[3]
  expression of levodopa-induced dyskinesia: inhibited the expression of levodopa-induced dyskinesia; also recorded: significantly suppresses the expression of levodopa-induced dyskinesia; also recorded: eliminates the expression of levodopa-induced dyskinesia; also recorded: eliminated the levodopa-induced dyskinesia; also recorded: significantly inhibited the expression of dyskinesias

## NC12CC3CC(CC(C3)C1)C2 [amantadine]
[5]
  actual awake time during the assumed sleep period: actual awake time was significantly increased
  effect on sleep (overall): experienced abnormal irregular sleep and sleep disturbances
[5]; [9]
  nocturnal activity: clear abnormal increase in nocturnal activity; also recorded: significant increase in nocturnal activity
  sleep efficiency: significantly dropped; also recorded: decrease in sleep efficiency; also recorded: sleep efficiency significantly decreased
[2]
  motor activity / hyperactivity during peak-dose dyskinesia (actiwatch-mini): inhibited the increased hyperactivity
[2]; listed as Amantadine
  motor activity / hyperactivity during peak-dose dyskinesia (actiwatch-mini): maintained the motor activity within the ON-period without dyskinesia
[3]
  expression of levodopa-induced dyskinesia: inhibited the expression of dyskinesia; also recorded: significantly inhibited the expression of dyskinesias
